The source of these data is patent US9815883B2, “Inhibiting peptides derived from TREM-like transcript 1 (TLT-1) and uses thereof” (Institut National de la Sante et de la Recherche Medicale …, priority 2010, dated 2017).

For assay [1], the system named is TREM-1. The experiment in a line: CARD9-MALT1-BCL10 complex formation (immunoprecipitation) in neutrophils. It counts as cell-based, human. As to conditions: peptide 30 μg/mL. As to the method: (B) CARD9-MALT1-BCL10 complex formation: Immunoblot of MALT-1 after immunoprecipitation with anti-BCL10 mAb of lysates of neutrophils stimulated for 20 minutes.
(B) […] complex formation: Immunoblot of MALT-1 after immunoprecipitation with anti-BCL10 mAb of lysates of neutrophils stimulated for 20 minutes.
Cells were lysed with CytoBuster Protein Extraction Reagent (Novagen). Samples were normalized by total protein concentration and lysates were pre-cleared before performing Immunoprecipitation. Pre-cleared lysates were then incubated overnight at 4° C. with rabbit-anti-Bcl10 mAb (Cell Signaling) or rabbit-anti-CARD9 (Antibodies Online). Thereafter, anti-rabbit-Ig beads (eBioscience) were added for 1 hour at room temperature. Beads were then washed 3 times, denatured in Laemli buffer 5 minutes at 95° C. and centrifuged at 16,000 g for 1 min.

Assay [2] concerns TREM-1. The experiment in a line: ROS production by neutrophils (DCFDA, flow cytometry). As to conditions: peptide 30 μg/mL. It counts as cell-based, human. How it is done: (D) ROS production: Flow cytometric quantification (DCFDA reduction) of neutrophils ROS production after 2 hours stimulation.
(§1) The quantitative determination of neutrophil phagocytosis and oxidative burst was performed by flow cytometry using the Phagotest and the Bursttest (Orpegen Pharma, Heidelberg, Germany) following the manufacturers' recommendations. A FITC-labelled opsonized E. coli was used to determine the general phagocytic activity (ingestion of one or more bacteria per cell) and the individual cellular phagocytic activity (number of bacteria per cell). For evaluation of oxidative burst activity, unlabeled opsonized E. coli, fMLP, PMA LPS and activated- or non-activated-platelets (30:1) were used as stimulants and DCFDA as a fluoregenic substrate (Invitrogen) accordingly with manufacturers' instructions.
Background: Flow cytometry measures light scatter and fluorescence of single cells or particles in a stream.

A further assay relates to human neutrophils. The experiment in a line: Neutrophil phagocytosis and oxidative burst (Phagotest, Bursttest). The class given is cell-based. As to the method:
Data (mean±SD) are representative of 6 different experiments.
as §1

Where [3] appears, read: LPS 0.1 μg/mL with or without αTREM-1.

Turning to “LQEEDAGEYGCMVDGAR (listed as Homo sapiens) [LR17]”, the CARD9-MALT1-BCL10 complex formation result with TREM-1 [1] (setting [3]) is “decreased”; with TREM-1 [1] (αTREM-1 5 μg/mL, 20 minutes), “reversed”. In addition, in the assay on TREM-1 [2] (setting [3]), the “intracellular ROS production” value is on record as “decreased”. Moreover, in the assay on TREM-1 [2] (TREM-1 agonist and platelets as inducers, 2 hours), the “ROS production by neutrophils” value is listed as “partly prevented”. Moreover, the “neutrophil oxidative burst mediated by E. coli” value in the assay on human neutrophils is reported as “decreased”. Further, the “neutrophils' phagocytic properties” value with human neutrophils (E. coli) was “did not alter”. Further, the “PMA- or fMLP-induced oxidative burst” value in the assay on human neutrophils (not shown) is listed as “no action”.
